US9974888B2, “Formulations for drug-coated medical devices” (priority 2010, dated 2018)

Experiment: Dye loss from coated membranes type P in stirred saline
Type: physicochemical
Conditions: water-soluble dye, stirred saline at 37° C., 5 min
Text: Membranes type P were coated either with a water-soluble dye without resveratrol or combined with resveratrol.

Oc1ccc(C=Cc2cc(O)cc(O)c2)cc1 [Resveratrol, resveratrol]
adhesion of the dye: significantly improved the adhesion of the dye
